Results as given in ChEMBL document CHEMBL1158928, “Antitumor agents, 118. The isolation and characterization of bruceanic acid A, its methyl ester, and the new bruceanic acids B, C, and D, from Brucea antidysenterica” (1990).
Values after ≈ are worked out from the molar mass of the structure shown. Active and inactive are the calls of the source. No cut-off for these calls is given here.

What was measured:
[1] = system: A549; experiment: Cytotoxicity against human A549 cells; assay type: functional; conditions: read-out: ED50 (the source's name)
[2] = system: HCT-8; experiment: Cytotoxicity against human HCT8 cells; assay type: functional; conditions: read-out: ED50 (the source's name)
[3] = system: TE-671; experiment: Cytotoxicity against human TE671 cells; assay type: functional; conditions: read-out: ED50 (the source's name)
[4] = system: KB; experiment: Cytotoxicity against human KB cells; assay type: functional; conditions: read-out: ED50 (the source's name)
[5] = system: P388; experiment: Cytotoxicity against mouse P388 cells; assay type: functional; conditions: read-out: ED50 (the source's name)
[6] = system: P388; experiment: Cytotoxicity against mouse P388 cells at 10 ug/ml; assay type: functional, cell-based
[7] = system: KB; experiment: Cytotoxicity against human KB cells at 10 ug/ml; assay type: functional, cell-based
[8] = system: TE-671; experiment: Cytotoxicity against human TE671 cells at 10 ug/ml; assay type: functional, cell-based
[9] = system: A549; experiment: Cytotoxicity against human A549 cells at 10 ug/ml; assay type: functional, cell-based
[10] = system: HCT-8; experiment: Cytotoxicity against human HCT8 cells at 10 ug/ml; assay type: functional, cell-based

COC(=O)[C@@]12OC[C@]34[C@H](CC(=O)[C@H](OC(=O)/C=C(\C)C(C)C)[C@@H]13)C[C@@H](C(C)=O)[C@](C)(CC(=O)O)[C@H]4[C@@H](O)[C@@H]2O [BRUCEANIC ACID A]
EC50 [1]: 10 µg/mL (≈ 18.2 µM) | EC50 [2]: 10 µg/mL (≈ 18.2 µM) | EC50 [3]: 5.5 µg/mL (≈ 9.99 µM) | EC50 [4]: 4.16 µg/mL (≈ 7.56 µM)

COC(=O)[C@@]12OC[C@]34[C@H](CC(=O)[C@H](OC(=O)/C=C(\C)C(C)(C)O)[C@@H]13)C[C@@H](C(C)=O)[C@](C)(CC(=O)O)[C@H]4[C@@H](O)[C@@H]2O [BRUCEANIC ACID D]
EC50 [1]: 10 µg/mL (≈ 17.6 µM) | EC50 [2]: 10 µg/mL (≈ 17.6 µM) | EC50 [5]: 0.77 µg/mL (≈ 1.36 µM)

COC(=O)[C@@]12OC[C@]34[C@H](CC(=O)[C@H](OC(=O)/C=C(\C)C(C)(C)OC(C)=O)[C@@H]13)C[C@@H](C(C)=O)[C@](C)(CC(=O)O)[C@H]4[C@@H](O)[C@@H]2O
Activity [6]: inactive | Activity [7]: inactive | Activity [8]: inactive | Activity [9]: inactive | Activity [10]: inactive

COC(=O)C[C@]1(C)[C@H]2[C@@H](O)[C@H](O)[C@]3(C(=O)OC)OC[C@@]24[C@H](CC(=O)[C@H](OC(=O)/C=C(\C)C(C)C)[C@@H]34)C[C@H]1C(C)=O
Activity [6]: inactive | Activity [7]: inactive | Activity [8]: inactive | Activity [9]: inactive | Activity [10]: inactive

COC(=O)[C@@]12OC[C@]34[C@H](CC(=O)[C@H](OC(=O)c5ccccc5)[C@@H]13)C[C@@H](C(C)=O)[C@](C)(CC(=O)O)[C@H]4[C@@H](O)[C@@H]2O
Activity [6]: inactive | Activity [7]: inactive | Activity [8]: inactive | Activity [9]: inactive | Activity [10]: inactive
